The text below walks through data of the NIST ThermoML archive (doi:10.1021/je049953t).

Data set [1] in a line: excess molar enthalpy (molar enthalpy of mixing); xn = mol fraction of the nth substance listed. To be noted: 101.33 kPa, Liquid, Flow calorimetry.
The conditions of data set [2]: 298.15 K; 101.33 kPa; Liquid.

± gives the expanded uncertainty stated by the source.

Consider `CCCC(C)C` [2-methylpentane] + CN(C)C=O, for which the excess molar enthalpy turned out to be 0.0551 ± 0.00148 kcal/mol in data set [1] (298.15 K, x1 = 0.03); 0.105 ± 0.00239 kcal/mol in data set [1] (298.15 K, x1 = 0.0611); 0.105 ± 0.00239 kcal/mol in data set [1] (298.15 K, x1 = 0.0613); 0.154 ± 0.00335 kcal/mol in data set [1] (298.15 K, x1 = 0.094); 0.112 ± 0.00239 kcal/mol in data set [1] (298.15 K, x1 = 0.9462); 0.0551 ± 0.00148 kcal/mol in data set [1] (313.15 K, x1 = 0.03). Also, the excess molar enthalpy in data set [1] (313.15 K, x1 = 0.0611) was found to be 0.107 ± 0.00239 kcal/mol; in data set [1] (313.15 K, x1 = 0.0613) it was 0.108 ± 0.00239 kcal/mol; in data set [1] (313.15 K, x1 = 0.094) it was 0.157 ± 0.00359 kcal/mol; in data set [1] (313.15 K, x1 = 0.1281), 0.202 ± 0.0043 kcal/mol; in data set [1] (313.15 K, x1 = 0.9178), 0.174 ± 0.00382 kcal/mol; in data set [1] (313.15 K, x1 = 0.9462), 0.113 ± 0.00263 kcal/mol. The excess molar enthalpy in data set [1] (313.15 K, x1 = 0.9469) came out at 0.11 ± 0.00263 kcal/mol.
One may read the mass density as the mass of a sample divided by its volume. In the case of `CN(C)C=O` [dimethylformamide], the mass density in data set [2] was found to be 943.81 ± 0.15 kg/m3.
On the same count and under the same terms, under `CCCC(C)C` [2-methylpentane] stands 648.45 ± 0.44 kg/m3.
